Paper PMC7746945 (Neuro-Oncology, 2020)
Several values for one entry are separate records, joined by “and”; a condition that tells them apart may be missing. Identical values can stand only once. Entries after “also recorded” stand apart in the source; their conditions may differ.

How the values were obtained:
[1] = Whole body autoradiography after single oral [14C]-olaparib; type: in vivo, pigmented rats; details: for radioactivity concentration, Blood / radioactivity concentration, Brain / radioactivity concentration, Choroid plexus / radioactivity concentration, Kidney cortex (outer) / radioactivity concentration, Large intestine mucosa / radioactivity concentration, Liver / radioactivity concentration, Meninges / radioactivity concentration, Pineal body / radioactivity concentration, Plasma / radioactivity concentration, Small intestine mucosa / radioactivity concentration, Spinal cord: rat, oral [14C]-olaparib 15 mg/kg
Procedure: (§1) Canine kidney epithelial cells, stably expressing human MDR1 cDNA (Madin-Darby canine kidney type II [MDCKII]–MDR1 cells) or empty vector (MDCKII control), were used to model the intact BBB and determine permeability coefficients of (^14C)-olaparib in the presence of ketoconazole (25 μM). Whole body autoradiography was performed on male pigmented rats after single oral administration of [^14C]-olaparib (15 mg/kg; 5 MBq/kg). For autoradiography studies, animal care and experiments were carried out in accordance with AstraZeneca guidelines, which comply with UK standards. […] Xenograft experiments were performed under the relevant UK Home Office Project Licence and carried out with ethical approval from the University of Glasgow under the Animal (Scientific Procedures) Act 1986 and the EU directive 2010. Mice were maintained in individually ventilated cages with environmental enrichment and following the guidelines of ARRIVE (Animal Research: Reporting of In Vivo Experiments). […] Ratiometric t-test analysis determined SER confidence intervals and P-values. Further details are available in the Supplementary Material.
(§2) Apparent permeability coefficients were calculated for apical to basolateral (Papp a‒b) and basolateral to apical transport (Papp b‒a) as described in Methods. […] (B) Single oral doses of 15 mg/kg [14C]-olaparib were administered to male pigmented rats that were subsequently culled, sectioned, and subjected to whole body autoradiography at the timepoints shown. Radioactivity was excluded from the central nervous system in all animals at all timepoints. […] Blood, tumor, and contralateral (non tumor bearing) brain were harvested and snap frozen at the time points shown. […] Note different y-axis scales.
For autoradiography studies, animal care and experiments were carried out in accordance with AstraZeneca guidelines. Male and female pigmented rats and female BALB/c nu/nu mice bearing subcutaneous HCT-116 colorectal carcinoma xenografts were treated with 15 mg/kg [^14C]-olaparib. Animals were culled by asphyxiation, carcasses frozen in hexane and solid carbon dioxide then subjected to whole body autoradiography. Radioactivity concentrations in tissue were quantified from whole-body autoradiograms using a validated image analysis system.

[2] = Olaparib PK in mice bearing intracranial G7 GBM xenografts (mass spectrometry); type: in vivo, CD1 nude mice; details: 50 mg/kg
Procedure: as §1, §2

recurrent GBM [3] = test: Efficacy: progression-free survival at 6 months (RANO); type: in vivo, human; details: olaparib with TMZ
Procedure: (§3) Secondary endpoints included PFS at 6 months (PFS-6, assessed radiologically using the RANO criteria) and radiological measurement of BBB permeability and perfusion by diffusion weighted and dynamic contrast-enhanced (DCE) MRI. […] Further details of the imaging protocol are provided in the Supplementary Material. Confidence intervals for PFS data were calculated using the exact binomial distribution.

recurrent GBM [4] = test: DCE-MRI of tumor perfusion and permeability before and after olaparib; type: in vivo, human; details: stage 1 and dose expansion patients, cycle 0
Procedure: as §3
The imaging protocol included four pre-contrast spoiled fast field echo (T1-FFE spoiled gradient echo) sequences with different flip angles (2o, 8o, 15o, 16-20o) for calculation of baseline T1 maps allowing estimation of contrast concentration from observed signal changes and a dynamic, contrast enhanced acquisition series with identical acquisition parameters as the 4th variable flip angle baseline T1 measurement (16-20o), consisting of 100-120 volumes with temporal spacing of 5.1-5.5 seconds (s). Gadolinium-based contrast agent (Gd-DTPA-BMA; Omniscan, GE Healthcare, Oslo, Norway) was injected by pressure injector as a 3 ml bolus at 4 ml/s (dose 0.1 mmol/kg) after acquisition of the seventh image volume, followed by saline flush. Data were analysed using the hybrid model [Li, Jackson Mag Res Med 2003] and in-house software. ROI placement was manual and enhancing pixels were identified through significant change in signal intensity following administration of contrast. […]

Compound: O=C(c1cc(Cc2n[nH]c(=O)c3ccccc23)ccc1F)N1CCN(C(=O)C2CC2)CC1 [olaparib, 4-[3-(4-cyclopropanecarbonylpiperazine-1-carbonyl)-4-fluorobenzyl]-2H-phthalazin-1-one]
- radioactivity in brain or spinal cord (brain penetration) ([1]; male and female rats, single [14C]-olaparib 15 mg/kg, 5 MBq/kg, any timepoint): no brain penetration; also recorded: undetectable
- radioactivity concentration, Blood ([1]; 1 hr): 2.44 nmol equivalents of olaparib per gram of tissue
- radioactivity concentration, Brain ([1]; 1 hr): BLQ
- radioactivity concentration, Choroid plexus ([1]; 1 hr): 0.618 nmol equivalents of olaparib per gram of tissue
- radioactivity concentration, Kidney cortex (outer) ([1]; 1 hr): 9.52 nmol equivalents of olaparib per gram of tissue
- radioactivity concentration, Large intestine mucosa ([1]; 1 hr): 12.1 nmol equivalents of olaparib per gram of tissue
- radioactivity concentration, Liver ([1]; 1 hr): 112 nmol equivalents of olaparib per gram of tissue
- radioactivity concentration, Meninges ([1]; 1 hr): 0.847 nmol equivalents of olaparib per gram of tissue
- radioactivity concentration, Pineal body ([1]; 1 hr): 2.13 nmol equivalents of olaparib per gram of tissue
- radioactivity concentration, Plasma ([1]; 1 hr): 9.69 nmol equivalents of olaparib per gram of tissue
- radioactivity concentration, Small intestine mucosa ([1]; 1 hr): 60.5 nmol equivalents of olaparib per gram of tissue
- radioactivity concentration, Spinal cord ([1]; 1 hr): BLQ
- radioactivity concentration, Blood ([1]; 4 hr): 0.729 nmol equivalents of olaparib per gram of tissue
- radioactivity concentration, Brain ([1]; 4 hr): BLQ
- radioactivity concentration, Choroid plexus ([1]; 4 hr): 0.228 nmol equivalents of olaparib per gram of tissue
- radioactivity concentration, Kidney cortex (outer) ([1]; 4 hr): 3.16 nmol equivalents of olaparib per gram of tissue
- radioactivity concentration, Large intestine mucosa ([1]; 4 hr): 11.1 nmol equivalents of olaparib per gram of tissue
- radioactivity concentration, Liver ([1]; 4 hr): 49.3 nmol equivalents of olaparib per gram of tissue
- radioactivity concentration, Meninges ([1]; 4 hr): 0.500 nmol equivalents of olaparib per gram of tissue
- radioactivity concentration, Pineal body ([1]; 4 hr): 0.318 nmol equivalents of olaparib per gram of tissue
- radioactivity concentration, Plasma ([1]; 4 hr): 2.11 nmol equivalents of olaparib per gram of tissue
- radioactivity concentration, Small intestine mucosa ([1]; 4 hr): 19.1 nmol equivalents of olaparib per gram of tissue
- radioactivity concentration, Spinal cord ([1]; 4 hr): BLQ
- radioactivity concentration, Blood ([1]; 8 hr): 0.171 nmol equivalents of olaparib per gram of tissue
- radioactivity concentration, Brain ([1]; 8 hr): BLQ
- radioactivity concentration, Choroid plexus ([1]; 8 hr): BLQ
- radioactivity concentration, Kidney cortex (outer) ([1]; 8 hr): 1.49 nmol equivalents of olaparib per gram of tissue
- radioactivity concentration, Large intestine mucosa ([1]; 8 hr): 39.8 nmol equivalents of olaparib per gram of tissue
- radioactivity concentration, Liver ([1]; 8 hr): 14.7 nmol equivalents of olaparib per gram of tissue
- radioactivity concentration, Meninges ([1]; 8 hr): BLQ
- radioactivity concentration, Pineal body ([1]; 8 hr): 0.248 nmol equivalents of olaparib per gram of tissue
- radioactivity concentration, Plasma ([1]; 8 hr): 0.180 nmol equivalents of olaparib per gram of tissue
- radioactivity concentration, Small intestine mucosa ([1]; 8 hr): 7.93 nmol equivalents of olaparib per gram of tissue
- radioactivity concentration, Spinal cord ([1]; 8 hr): BLQ
- radioactivity concentration, Blood ([1]; 24 hr): BLQ^3
- radioactivity concentration, Brain ([1]; 24 hr): BLQ
- radioactivity concentration, Choroid plexus ([1]; 24 hr): BLQ
- radioactivity concentration, Kidney cortex (outer) ([1]; 24 hr): 0.248 nmol equivalents of olaparib per gram of tissue
- radioactivity concentration, Large intestine mucosa ([1]; 24 hr): 2.10 nmol equivalents of olaparib per gram of tissue
- radioactivity concentration, Liver ([1]; 24 hr): 2.23 nmol equivalents of olaparib per gram of tissue
- radioactivity concentration, Meninges ([1]; 24 hr): BLQ
- radioactivity concentration, Pineal body ([1]; 24 hr): BLQ
- radioactivity concentration, Plasma ([1]; 24 hr): 0.046 nmol equivalents of olaparib per gram of tissue
- radioactivity concentration, Small intestine mucosa ([1]; 24 hr): 1.19 nmol equivalents of olaparib per gram of tissue
- radioactivity concentration, Spinal cord ([1]; 24 hr): BLQ
- radioactivity concentration, Blood ([1]; 72 hr): BLQ
- radioactivity concentration, Brain ([1]; 72 hr): BLQ
- radioactivity concentration, Choroid plexus ([1]; 72 hr): BLQ
- radioactivity concentration, Kidney cortex (outer) ([1]; 72 hr): 0.202 nmol equivalents of olaparib per gram of tissue
- radioactivity concentration, Large intestine mucosa ([1]; 72 hr): BLQ
- radioactivity concentration, Liver ([1]; 72 hr): 0.604 nmol equivalents of olaparib per gram of tissue
- radioactivity concentration, Meninges ([1]; 72 hr): BLQ
- radioactivity concentration, Pineal body ([1]; 72 hr): BLQ
- radioactivity concentration, Plasma ([1]; 72 hr): 0.009 nmol equivalents of olaparib per gram of tissue
- radioactivity concentration, Small intestine mucosa ([1]; 72 hr): BLQ
- radioactivity concentration, Spinal cord ([1]; 72 hr): BLQ
- radioactivity concentration, Blood ([1]; 168 hr): BLQ
- radioactivity concentration, Brain ([1]; 168 hr): BLQ
- radioactivity concentration, Choroid plexus ([1]; 168 hr): BLQ
- radioactivity concentration, Kidney cortex (outer) ([1]; 168 hr): BLQ
- radioactivity concentration, Large intestine mucosa ([1]; 168 hr): BLQ
- radioactivity concentration, Liver ([1]; 168 hr): 0.164 nmol equivalents of olaparib per gram of tissue
- radioactivity concentration, Meninges ([1]; 168 hr): BLQ
- radioactivity concentration, Pineal body ([1]; 168 hr): BLQ
- radioactivity concentration, Small intestine mucosa ([1]; 168 hr): BLQ
- radioactivity concentration, Spinal cord ([1]; 168 hr): BLQ
- olaparib in contralateral hemisphere ([2]; 5 and 24 hours): undetectable
- olaparib in tumor specimens ([2]; 5 hours): detectable in one tumor specimen
- concentration at 2 h ([2]; CD1 nude, mouse, contralateral (non-tumor bearing) brain, oral, contralateral (non-tumor bearing) cerebral hemisphere olaparib concentration, median, 50 mg/kg oral gavage): 84 nM
- concentration at 2 h ([2]; CD1 nude, mouse, contralateral (non-tumor bearing) brain, oral, contralateral (non-tumor bearing) cerebral hemisphere olaparib concentration, range, 50 mg/kg oral gavage): 53 to 114 nM
- concentration at 2 h ([2]; CD1 nude, mouse, plasma, oral, plasma olaparib level, median, 50 mg/kg oral gavage): 1590 nM
- concentration at 5 h ([2]; CD1 nude, mouse, plasma, oral, plasma olaparib level, median, 50 mg/kg oral gavage, 5 hours): 230 nM
- concentration at 2 h ([2]; CD1 nude, mouse, plasma, oral, plasma olaparib level, range, 50 mg/kg oral gavage): 773 to 2830 nM
- concentration at 2 h ([2]; CD1 nude, mouse, tumor, po, tumor olaparib concentration, median, intracranial G7 xenograft, 50 mg/kg oral gavage): 347 nM
- concentration at 2 h ([2]; CD1 nude, mouse, tumor, po, tumor olaparib concentration, range, intracranial G7 xenograft, 50 mg/kg oral gavage, 4 mice): 110 to 2780 nM
- patients progression free at 6 months (PFS-6) (recurrent GBM [3]; evaluable patients): 36% and 39%
- number of patients progression free at 6 months (recurrent GBM [3]; of 36 patients evaluable for efficacy): 14
- changes in perfusion or permeability parameters between baseline and post-olaparib scans (recurrent GBM [4]): no significant changes
